Legend:
[1] = target: T1, Ras farnesyl transferase (Homo sapiens, UniProt P49354+P49356); assay: in vitro inhibitory activity for Ras farnesyl transferase, H-Ras substrate; assay type: biochemical
T1 construct: made in house

[2] = target: T1, Ras farnesyl transferase; assay: in vitro inhibitory activity for Ras farnesyl transferase, K-Ras substrate; assay type: biochemical
[3] = target: T2, Ras farnesyl transferase (Rattus norvegicus, UniProt Q02293+Q04631); assay: in vivo (cellular) Ras farnesyl transferase inhibitory activity, Rat2 cells expressing C-Harvey-Ras; assay type: cell-based
T2 construct: endogenous in cells; host or cells: Rat2 fibroblasts transformed with C-Harvey-Ras, or with H-Ras carrying the K-Ras C-terminal polybasic lysine domain
How it was run: (§1)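 Transformed Rat2 cells treated with compound in 1% DMSO, labelled with [35S]methionine from 4 h onward for a further 20 h. Ras immunoprecipitated with Y13-259 and resolved by SDS-PAGE and autoradiography. CIC50 is the concentration inhibiting 50% of Ras farnesylation, from farnesylated versus unfarnesylated band intensities.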

[4] = target: T2, Ras farnesyl transferase; assay: in vivo (cellular) Ras farnesyl transferase inhibitory activity, Rat2 cells transformed with H-Ras fused with polybasic lysine domain of K-Ras; assay type: cell-based
How it was run: as §1

[5] = recombinant Ras farnesyl transferase, H-Ras substrate, tritium-farnesylpyrophosphate, 30 minutes at 37° C., read-out: H-Ras IC50
[6] = recombinant Ras farnesyl transferase, K-Ras substrate, read-out: K-Ras IC50
[7] = Rat2 cell line expressing C-Harvey-Ras, concentration inhibiting 50% of farnesyl binding of Ras protein, read-out: H-Ras CIC50
[8] = Rat2 cell line transformed with H-Ras substituted with polybasic lysine domain at C-terminus of K-Ras, concentration inhibiting 50% of farnesyl binding, read-out: K-Ras CIC50

Row | SMILES | IC50 [1, 5] [nM] | IC50 [2, 6] [nM] | IC50 [3, 7] [nM] | IC50 [4, 8] [nM] | IC50 [1] [nM] | IC50 [2] [nM] | IC50 [3] [nM] | IC50 [4] [nM]
1 | CCCCCCC(=O)N1CCC(Cn2cncc2Cn2cc(C(=O)N(C)CCOC)c(-c3cccc4ccccc34)c2)CC1 [Compound 12, 1-[1-(1-Heptanoyl-piperidin-4-ylmethyl)-1H-imidazol-5-ylmethyl]-3-[N-(2-methoxyethyl)-N-methyl]carbamoyl-4-(naphthalen-1-yl)-1H-pyrrole] | 1 to 10 | 10 to 1000 | 10 | 1000 to 50000 |  |  |  | 
2 | CN1CCN(C(=O)c2cn(Cc3cncn3CC3CCN(C(=O)OCc4ccccc4)CC3)cc2-c2cccc3ccccc23)CC1 [Compound 38, 1-[1-(1-Benzyloxycarbonylpiperidin-4-yl)methyl-1H-imidazol-5-yl]methyl-3-(4-methylpiperazin-1-yl)carbonyl-4-(naphthalen-1-yl)-1H-pyrrole] | 3.8 | 15 | 12.5 | 2500 |  |  |  | 
3 | COCCN(C)C(=O)c1cn(Cc2cncn2CC2CCN(C(=O)c3ccc4ccccc4c3)CC2)cc1-c1cccc2ccccc12 [Compound 27, 3-[N-(2-Methoxyethyl)-N-methyl]carbamoyl-4-(naphthalen-1-yl)-1-{1-[1-(naphthalen-2-ylcarbonyl)piperidin-4-ylmethyl]-1H-imidazol-5-ylmethyl}-1H-pyrrole] | 9 | 15 | 10 to 100 | 1000 to 10000 |  |  |  | 
4 | COCCN(C)C(=O)c1cn(Cc2cncn2CC2CCN(C(=O)N(C)Cc3ccccc3)CC2)cc1-c1cccc2ccccc12 [Compound 30] | 2.5 | 6 | 10 to 100 | 1000 to 10000 |  |  |  | 
5 | CN(C)CCN(C)C(=O)c1cn(Cc2cncn2CC2CCN(C(=O)OCc3ccccc3)CC2)cc1-c1cccc2ccccc12 [Compound 39, 1-[1-(-Benzyloxycarbonylpiperidin-4-yl)methyl-1H-imidazol-5-yl]methyl-3-{N-[2-(N,N-dimethylamino)ethyl]-N-methyl}carbamoyl-4-(naphthalen-1-yl)-1H-pyrrole] | 300 | 1500 | 1000 | 30000 to 100000 |  |  |  | 
6 | CN1CCN(C(=O)c2cn(Cc3cncn3CC3CCN(C(=O)/C=C/c4ccccc4)CC3)cc2-c2cccc3ccccc23)CC1 [Compound 50] | 1.7 | 8 | 30 | 10000 to 50000 |  |  |  | 
7 | CN1CCN(C(=O)c2cn(Cc3cncn3CC3CCN(Cc4ccc(-c5ccccc5)cc4)CC3)cc2-c2cccc3ccccc23)CC1 [Compound 56, 1-{1-[1-(4-Biphenylmethyl)piperidin-4-yl]methyl-1H-imidazol-5-yl}methyl-3-(4-methylpiperazin-1-yl)carbonyl-4-(naphthalen-1-yl)-1H-pyrrole] | 5 | 20 | 50 | 5000 |  |  |  | 
8 | CC(=O)N1CCC(Cn2cncc2Cn2ccc(C(=O)c3cccc4ccccc34)c2)CC1 [Compound 37, 1-[1-(1-Acetylpiperidin-4-yl)methyl-1H-imidazol-5-yl]methyl-3-(naphthalen-1-yl)carbonyl-1H-pyrrole] |  |  |  |  | 350 | 10000 to 100000 | 1000 to 10000 | 10000 to 50000

Source: patent publication US6436960B1, “Farnesyl transferase inhibitors having a piperidine structure and process for preparation thereof” (LG Chemical Ltd., priority 1998, dated 2002)
